Test results reported in patent publication US20260217767A1, “NOVEL A4B7 THIOETHER PEPTIDE DIMER ANTAGONISTS” (Protagonist Therapeutics, Inc., priority 2014, published 2026).
Where a SMILES comes first, the peptide text is derived from it.

Key:
rh integrin α4β7 = target: T1, rh integrin α4β7 (Homo sapiens, UniProt P13612+P26010); assay: α4β7-MAdCAM Competition ELISA; type: binding; details: thioether monomer peptides, Table 6; read-out: ELISA A4B7
T1 construct: purchased R&D Systems 5397-A30
T1 sequence (P13612 34-977 limits assumed): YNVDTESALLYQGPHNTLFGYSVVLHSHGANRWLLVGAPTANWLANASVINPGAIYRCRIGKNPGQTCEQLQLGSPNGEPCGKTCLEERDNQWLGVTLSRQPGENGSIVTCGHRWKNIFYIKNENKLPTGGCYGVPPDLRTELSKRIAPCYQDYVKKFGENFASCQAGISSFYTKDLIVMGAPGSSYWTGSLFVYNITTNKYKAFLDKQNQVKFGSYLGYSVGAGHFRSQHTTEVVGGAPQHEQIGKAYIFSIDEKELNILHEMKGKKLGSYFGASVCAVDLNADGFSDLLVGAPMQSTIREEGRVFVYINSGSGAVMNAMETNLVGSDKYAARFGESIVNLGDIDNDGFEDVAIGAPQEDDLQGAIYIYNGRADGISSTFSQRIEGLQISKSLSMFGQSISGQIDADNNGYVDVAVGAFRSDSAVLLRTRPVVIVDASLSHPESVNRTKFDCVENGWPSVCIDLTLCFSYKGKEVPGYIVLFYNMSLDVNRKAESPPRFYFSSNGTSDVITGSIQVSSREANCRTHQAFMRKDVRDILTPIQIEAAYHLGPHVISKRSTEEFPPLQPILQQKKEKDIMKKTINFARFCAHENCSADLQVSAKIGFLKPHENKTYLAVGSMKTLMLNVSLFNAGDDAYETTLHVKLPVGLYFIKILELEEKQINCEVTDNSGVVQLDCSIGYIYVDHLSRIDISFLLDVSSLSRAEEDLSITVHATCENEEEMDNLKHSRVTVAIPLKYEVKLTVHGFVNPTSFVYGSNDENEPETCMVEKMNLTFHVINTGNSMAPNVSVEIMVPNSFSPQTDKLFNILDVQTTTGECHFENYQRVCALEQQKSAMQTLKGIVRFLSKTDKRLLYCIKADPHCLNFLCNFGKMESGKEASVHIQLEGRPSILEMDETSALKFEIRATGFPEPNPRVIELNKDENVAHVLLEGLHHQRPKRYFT
T1 sequence (P26010 20-723 limits assumed): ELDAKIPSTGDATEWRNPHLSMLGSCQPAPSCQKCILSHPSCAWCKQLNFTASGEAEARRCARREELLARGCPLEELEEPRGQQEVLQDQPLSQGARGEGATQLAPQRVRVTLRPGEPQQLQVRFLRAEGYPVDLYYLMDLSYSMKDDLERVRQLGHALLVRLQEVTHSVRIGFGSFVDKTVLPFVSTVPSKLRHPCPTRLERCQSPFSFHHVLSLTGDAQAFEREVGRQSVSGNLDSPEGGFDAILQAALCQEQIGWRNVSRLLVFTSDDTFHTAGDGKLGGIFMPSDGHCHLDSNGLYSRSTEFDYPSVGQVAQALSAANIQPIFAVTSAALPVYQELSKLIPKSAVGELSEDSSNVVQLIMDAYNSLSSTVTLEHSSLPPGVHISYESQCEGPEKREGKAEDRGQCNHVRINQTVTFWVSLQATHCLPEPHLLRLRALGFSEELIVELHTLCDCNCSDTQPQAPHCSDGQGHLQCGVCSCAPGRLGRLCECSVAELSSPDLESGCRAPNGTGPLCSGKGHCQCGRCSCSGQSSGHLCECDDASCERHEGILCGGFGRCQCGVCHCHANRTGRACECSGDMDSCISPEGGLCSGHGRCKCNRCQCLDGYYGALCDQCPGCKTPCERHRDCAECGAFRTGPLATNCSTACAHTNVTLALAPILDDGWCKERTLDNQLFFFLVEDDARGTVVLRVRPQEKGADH
Description: α4β7-MAdCAM Competition ELISA A nickel coated plate (Pierce #15442) was coated with rh integrin α4β[…] Systems #5397-A30) at 800 ng/well and incubated at room temperature with shaking for 1 hr. The solution was then removed by shaking and blocked with assay buffer (50 mM Tris-HCl pH7.6, 150 mM NaCl, 1 mM MnCl2 or MgCl2, 0.05% Tween-20 and 0.5% BSA) at 250 ul/well. The plate was then incubated at room temperature for 1 hr. Each well was washed 3 times with wash buffer (50 mM Tris-HCl pH7.6, 100 mM NaCl, 1 mM MnCl2 or MgCl2, 0.05% Tween-20). To each well was added 25 ul of a serial dilution (3-fold dilutions in assay buffer) of peptides starting at 20 μM. 25 ul of recombinant human MAdCAM-1 (R&D Systems #6056-MC) was then added to each well at a fixed concentration 20 nM. The final starting peptide concentration was 10 μM, and the final MAdCAM-1 concentration was 10 nM. The plates were then incubated at room temperature for 1 hr to reach binding equilibrium. The wells were then washed three times with wash buffer. 50 ul of mouse anti-human IgG1-HRP (Invitrogen #A10648) diluted in 1:2000 in assay buffer was then added to each well. The wells were incubated at room temperature for 45 min with shaking. The wells were then washed 3 times with wash buffer. 100 ul of TMB were then added to each well and closely observe during development time. The reaction was stopped with 2N H2SO4 and absorbance was read at 450 nm.

[1] = Simulated Intestinal Fluid (SIF) Stability Assay; type: in vitro ADME; details: pig, 37° C., monomers, Table 6; for half-life at 22 μM: simulated intestinal fluid (SIF) with 1% porcine pancreatin, pH 6.5, porcine pancreatin; for half-life: porcine pancreatin
Method in brief: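 Percent peptide remaining over time was measured by LC-MS/MS as the peak-area ratio to internal standard, and a first-order decay fit gave half-life. Digests contained 22 μM peptide and 1% pancreatin in pH 6.5 FaSSIF buffer at 37° C. Aliquots were quenched in organic solvent with formic acid.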

Compound	IC50 (rh integrin α4β7)	half-life at 22 μM [1]	half-life [1]
CC(C)C[C@@H]1NC(=O)[C@H]([C@@H](C)O)NC(=O)[C@H](CC(=O)O)NC(=O)[C@H](CO)NC(=O)[C@H](CCCNC(=N)N)N(C)C(=O)c2ccccc2CSC(C)(C)[C@@H](C(=O)N[C@@H](Cc2ccc(O)cc2)C(=O)N[C@@H](CCC(=O)O)C(=O)N[C@H](CCCCN)C(N)=O)NC1=O [compound 78] (HELM PEPTIDE1{[meR].S.D.T.L.[Pen].Y.E.[dK].[am]}|CHEM1{[O=C(c1ccccc1C[*:2])[*:1]]}$PEPTIDE1,CHEM1,1:R1-1:R1|PEPTIDE1,CHEM1,6:R3-1:R2$$$V2.0)	< 25 nM	1.3 h	
CC(C)C[C@@H]1NC(=O)[C@H]([C@@H](C)O)NC(=O)[C@H](CC(=O)O)NC(=O)[C@H](CO)NC(=O)[C@H](CCCNC(=N)N)N(C)C(=O)c2ccccc2CSC(C)(C)[C@@H](C(=O)N[C@H](Cc2ccccc2)C(=O)N[C@@H](Cc2ccc3ccccc3c2)C(=O)N[C@H](CCCCN)C(N)=O)NC1=O [compound 71] (HELM PEPTIDE1{[meR].S.D.T.L.[Pen].[dF].[O=C([C@H](Cc1ccc2ccccc2c1)N[*:1])[*:2]].[dK].[am]}|CHEM1{[O=C(c1ccccc1C[*:2])[*:1]]}$PEPTIDE1,CHEM1,1:R1-1:R1|PEPTIDE1,CHEM1,6:R3-1:R2$$$V2.0)	25 to 100 nM	> 3 h	
CC(C)C[C@@H]1NC(=O)[C@H]([C@@H](C)O)NC(=O)[C@H](CC(=O)O)NC(=O)[C@H](CO)NC(=O)[C@H](CCCNC(=N)N)N(C)C(=O)c2ccccc2CSC(C)(C)[C@@H](C(=O)N[C@@H](Cc2cccc3ccccc23)C(=O)N[C@H](CCC(=O)O)C(=O)N[C@H](CCCCN)C(N)=O)NC1=O [compound 68] (HELM PEPTIDE1{[meR].S.D.T.L.[Pen].[O=C([C@H](Cc1cccc2ccccc12)N[*:1])[*:2]].[dE].[dK].[am]}|CHEM1{[O=C(c1ccccc1C[*:2])[*:1]]}$PEPTIDE1,CHEM1,1:R1-1:R1|PEPTIDE1,CHEM1,6:R3-1:R2$$$V2.0)	< 25 nM	> 3 h	
CC(C)C[C@@H]1NC(=O)[C@H]([C@@H](C)O)NC(=O)[C@H](CC(=O)O)NC(=O)[C@H](CO)NC(=O)[C@H](CCCNC(=N)N)N(C)C(=O)c2ccccc2CSC(C)(C)[C@@H](C(=O)N[C@@H](Cc2ccc(O)cc2)C(=O)N[C@@H](CCC(=O)O)CC(=O)N[C@H](CCCCN)C(N)=O)NC1=O [compound 74] (HELM PEPTIDE1{[meR].S.D.T.L.[Pen].Y.[O=C(O)CC[C@@H](CC(=O)[*:2])N[*:1]].[dK].[am]}|CHEM1{[O=C(c1ccccc1C[*:2])[*:1]]}$PEPTIDE1,CHEM1,1:R1-1:R1|PEPTIDE1,CHEM1,6:R3-1:R2$$$V2.0)	< 25 nM	> 3 h	
CC(C)C[C@@H]1NC(=O)[C@H]([C@@H](C)O)NC(=O)[C@H](CC(=O)O)NC(=O)[C@H](CO)NC(=O)[C@H](CCCNC(=N)N)N(C)C(=O)c2ccccc2CSC(C)(C)[C@@H](C(=O)N[C@@H](Cc2c[nH]c3ccccc23)C(=O)N[C@@H](CCC(=O)O)C(=O)N(C)[C@H](CCCCN)C(N)=O)NC1=O [compound 62] (HELM PEPTIDE1{[meR].S.D.T.L.[Pen].W.E.[CN([C@H](CCCCN)C(=O)[*:2])[*:1]].[am]}|CHEM1{[O=C(c1ccccc1C[*:2])[*:1]]}$PEPTIDE1,CHEM1,1:R1-1:R1|PEPTIDE1,CHEM1,6:R3-1:R2$$$V2.0)	< 25 nM	> 3 h	
CC(C)C[C@@H]1NC(=O)[C@H]([C@@H](C)O)NC(=O)[C@H](CC(=O)O)NC(=O)[C@H](CO)NC(=O)[C@H](CCCNC(=N)N)N(C)C(=O)CCSCC[C@@H](C(=O)N[C@@H](Cc2c[nH]c3ccccc23)C(=O)N[C@H](CCCCN)C(N)=O)NC1=O [compound 57]	100 to 1000 nM		< 0.333 h
CC(C)C[C@@H]1NC(=O)[C@H]([C@@H](C)O)NC(=O)[C@H](CC(=O)O)NC(=O)[C@H](CO)NC(=O)[C@H](CCCNC(=N)N)N(C)C(=O)c2ccccc2CSCC[C@@H](C(=O)N[C@@H](Cc2c[nH]c3ccccc23)C(=O)N[C@@H](CCC(=O)O)C(=O)N[C@H](CCCCN)C(N)=O)NC1=O [compound 67] (HELM PEPTIDE1{[meR].S.D.T.L.[O=C([C@H](CCS[*:3])N[*:1])[*:2]].W.E.[dK].[am]}|CHEM1{[O=C(c1ccccc1C[*:2])[*:1]]}$PEPTIDE1,CHEM1,1:R1-1:R1|PEPTIDE1,CHEM1,6:R3-1:R2$$$V2.0)	< 25 nM		< 0.333 h
CC(C)C[C@@H]1NC(=O)[C@H]([C@@H](C)O)NC(=O)[C@H](CC(=O)O)NC(=O)[C@H](CO)NC(=O)[C@H](CCCNC(=N)N)N(C)C(=O)c2ccccc2CSC(C)(C)[C@@H](C(=O)N[C@@H](Cc2c[nH]c3ccccc23)C(=O)N[C@@H](CCC(=O)O)CC(=O)N[C@H](CCCCN)C(N)=O)NC1=O [compound 61] (HELM PEPTIDE1{[meR].S.D.T.L.[Pen].W.[O=C(O)CC[C@@H](CC(=O)[*:2])N[*:1]].[dK].[am]}|CHEM1{[O=C(c1ccccc1C[*:2])[*:1]]}$PEPTIDE1,CHEM1,1:R1-1:R1|PEPTIDE1,CHEM1,6:R3-1:R2$$$V2.0)	< 25 nM	> 3 h	
CC(C)C[C@@H]1NC(=O)[C@H]([C@@H](C)O)NC(=O)[C@H](CC(=O)O)NC(=O)[C@H](CO)NC(=O)[C@H](CCCNC(=N)N)N(C)C(=O)C(C)SC[C@@H](C(=O)N[C@@H](Cc2c[nH]c3ccccc23)C(=O)N[C@H](CCCCN)C(N)=O)NC1=O (single isomer, unassigned) [compound 51]	25 to 100 nM	0.1 h	
